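Where inhibition never reached the appropriate level, the endpoint shown equals the highest concentration tested. Otherwise, values were interpolated linearly from a five-concentration, 48-hour dose response in 96-well plates. Abbreviation: GI50, concentration required for 50% inhibition of growth.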 Activity calls are given as the source filed them. No stated cut-off is given here; in the data, active = GI50 up to about 1.1 µM and inactive = higher.
Columns and labels:
Assay in all cases: growth of human tumour cells (NCI), 48 h
IGROV-1 = test system: IGROV-1
DMS-114 = test system: DMS-114
SNB-78 = test system: SNB-78
UACC-62 = test system: UACC-62
HOP-18 = test system: HOP-18
DMS-273 = test system: DMS-273
MOLT-4 = test system: MOLT-4
U-251 = test system: U-251
NCI-H460 = test system: NCI-H460
HCT-116 = test system: HCT-116
M14 = test system: M14
786-0 = test system: 786-0
COLO 205 = test system: COLO 205
Malme-3M = test system: Malme-3M
TK-10 = test system: TK-10
LOX IMVI = test system: LOX IMVI
OVCAR-5 = test system: OVCAR-5
OVCAR-4 = test system: OVCAR-4
HOP-92 = test system: HOP-92
HCC 2998 = test system: HCC 2998
SNB-19 = test system: SNB-19
A498 = test system: A498
RPMI-8226 = test system: RPMI-8226
UO-31 = test system: UO-31
SF-539 = test system: SF-539
M19-MEL = test system: M19-MEL
K562 = test system: K562
HCT-15 = test system: HCT-15
SNB-75 = test system: SNB-75
CCRF-CEM = test system: CCRF-CEM
UACC-257 = test system: UACC-257
OVCAR-8 = test system: OVCAR-8
KM-20L2 = test system: KM-20L2
SN12C = test system: SN12C
A549 = test system: A549
HOP-62 = test system: HOP-62
SK-OV-3 = test system: SK-OV-3
LXFL 529 = test system: LXFL 529
HT-29 = test system: HT-29
NCI-H23 = test system: NCI-H23
SF-268 = test system: SF-268
EKVX = test system: EKVX
DLD-1 = test system: DLD-1
CAKI-1 = test system: CAKI-1
RXF 393 = test system: RXF 393
XF498 = test system: XF498
OVCAR-3 = test system: OVCAR-3
SK-MEL-5 = test system: SK-MEL-5
SK-MEL-28 = test system: SK-MEL-28
KM12 = test system: KM12
NCI-H522 = test system: NCI-H522
SK-MEL-2 = test system: SK-MEL-2
SW-620 = test system: SW-620
NCI-H226 = test system: NCI-H226
ACHN = test system: ACHN
HL-60 = test system: HL-60
SF-295 = test system: SF-295
SR = test system: SR

O=C1[C@@H]2C3C=CC([C@H]4C(=O)N(CO)C(=O)[C@@H]34)[C@@H]2C(=O)N1CO
GI50 (IGROV-1): > 100 µM (inactive) | GI50 (DMS-114): 32.1 µM (inactive) | GI50 (SNB-78): > 100 µM (inactive) | GI50 (UACC-62): > 76.2 µM (inactive) | GI50 (HOP-18): 34 µM (inactive) | GI50 (DMS-273): > 42.7 µM (inactive) | GI50 (MOLT-4): 34 µM (inactive) | GI50 (U-251): > 56.2 µM (inactive) | GI50 (NCI-H460): 30.2 µM (inactive) | GI50 (HCT-116): 34.9 µM (inactive) | GI50 (M14): > 50.7 µM (inactive) | GI50 (786-0): 41.8 µM (inactive) | GI50 (COLO 205): > 49.9 µM (inactive) | GI50 (Malme-3M): > 100 µM (inactive) | GI50 (TK-10): > 100 µM (inactive) | GI50 (LOX IMVI): 42.1 µM (inactive) | GI50 (OVCAR-5): > 100 µM (inactive) | GI50 (OVCAR-4): > 75.5 µM (inactive) | GI50 (HOP-92): > 78.2 µM (inactive) | GI50 (HCC 2998): > 70 µM (inactive) | GI50 (SNB-19): > 100 µM (inactive) | GI50 (A498): > 100 µM (inactive) | GI50 (RPMI-8226): 19.4 µM (inactive) | GI50 (UO-31): > 65.3 µM (inactive) | GI50 (SF-539): 47.3 µM (inactive) | GI50 (M19-MEL): > 44.9 µM (inactive) | GI50 (K562): 61.2 µM (inactive) | GI50 (HCT-15): 25.4 µM | GI50 (SNB-75): > 78.2 µM (inactive) | GI50 (CCRF-CEM): 25.2 µM (inactive) | GI50 (UACC-257): > 100 µM (inactive) | GI50 (OVCAR-8): 35.6 µM (inactive) | GI50 (KM-20L2): > 31.6 µM (inactive) | GI50 (SN12C): > 57.5 µM (inactive) | GI50 (A549): > 64 µM (inactive) | GI50 (HOP-62): > 100 µM (inactive) | GI50 (SK-OV-3): > 100 µM (inactive) | GI50 (LXFL 529): 79.1 µM (inactive) | GI50 (HT-29): 62.8 µM (inactive) | GI50 (NCI-H23): > 92.9 µM (inactive) | GI50 (SF-268): > 49.7 µM (inactive) | GI50 (EKVX): > 100 µM (inactive) | GI50 (DLD-1): 48.5 µM (inactive) | GI50 (CAKI-1): > 100 µM (inactive) | GI50 (RXF 393): > 55.1 µM (inactive) | GI50 (XF498): > 100 µM (inactive) | GI50 (OVCAR-3): > 100 µM (inactive) | GI50 (SK-MEL-5): 59 µM (inactive) | GI50 (SK-MEL-28): > 63.5 µM (inactive) | GI50 (KM12): > 64.7 µM (inactive) | GI50 (NCI-H522): 34.8 µM (inactive) | GI50 (SK-MEL-2): > 100 µM (inactive) | GI50 (SW-620): 26.1 µM (inactive) | GI50 (NCI-H226): > 100 µM (inactive) | GI50 (ACHN): > 50.7 µM (inactive) | GI50 (HL-60): 24.9 µM (inactive) | GI50 (SF-295): > 100 µM (inactive)

c1ccc2c(c1)N=C(c1cccc3ccccc13)CC(c1cccc3ccccc13)S2 (centres undefined)
GI50 (IGROV-1): 5.68 µM (inactive) | GI50 (DMS-114): 2.74 µM (inactive) | GI50 (SNB-78): 5.53 µM (inactive) | GI50 (UACC-62): 5.21 µM (inactive) | GI50 (HOP-18): 5.57 µM (inactive) | GI50 (DMS-273): 4.46 µM (inactive) | GI50 (MOLT-4): 2.24 µM (inactive) | GI50 (U-251): 2.63 µM (inactive) | GI50 (NCI-H460): 3.8 µM (inactive) | GI50 (HCT-116): 3.19 µM (inactive) | GI50 (M14): 13.2 µM (inactive) | GI50 (786-0): 3.8 µM (inactive) | GI50 (COLO 205): 12.9 µM (inactive) | GI50 (Malme-3M): 14.9 µM (inactive) | GI50 (TK-10): 12.2 µM (inactive) | GI50 (LOX IMVI): 3.48 µM (inactive) | GI50 (OVCAR-5): 6.9 µM (inactive) | GI50 (OVCAR-4): 3.68 µM (inactive) | GI50 (HCC 2998): 4.21 µM (inactive) | GI50 (SNB-19): 4.33 µM (inactive) | GI50 (A498): 7.94 µM (inactive) | GI50 (RPMI-8226): 1.9 µM (inactive) | GI50 (UO-31): 11.2 µM (inactive) | GI50 (SF-539): 4.92 µM (inactive) | GI50 (M19-MEL): 5.53 µM (inactive) | GI50 (K562): 2.49 µM (inactive) | GI50 (HCT-15): 4.26 µM | GI50 (SNB-75): 5.83 µM (inactive) | GI50 (CCRF-CEM): 2.05 µM (inactive) | GI50 (UACC-257): 14.7 µM (inactive) | GI50 (OVCAR-8): 2.96 µM (inactive) | GI50 (KM-20L2): 3.24 µM (inactive) | GI50 (SN12C): 4.79 µM (inactive) | GI50 (A549): 9.12 µM (inactive) | GI50 (HOP-62): 9.14 µM (inactive) | GI50 (SK-OV-3): 10.3 µM (inactive) | GI50 (LXFL 529): 3.27 µM (inactive) | GI50 (HT-29): 3.33 µM (inactive) | GI50 (NCI-H23): 3.57 µM (inactive) | GI50 (SF-268): 4.42 µM (inactive) | GI50 (EKVX): 14 µM (inactive) | GI50 (DLD-1): 3.6 µM (inactive) | GI50 (SR): 2.07 µM (inactive) | GI50 (CAKI-1): 4.43 µM (inactive) | GI50 (RXF 393): 3.48 µM (inactive) | GI50 (XF498): 9.79 µM (inactive) | GI50 (OVCAR-3): 2.77 µM (inactive) | GI50 (SK-MEL-5): 8.95 µM (inactive) | GI50 (SK-MEL-28): 7.36 µM (inactive) | GI50 (KM12): 2.91 µM (inactive) | GI50 (NCI-H522): 2.54 µM (inactive) | GI50 (SK-MEL-2): 14.9 µM (inactive) | GI50 (SW-620): 2.56 µM (inactive) | GI50 (NCI-H226): 9.84 µM (inactive) | GI50 (ACHN): 10.2 µM (inactive) | GI50 (HL-60): 0.467 µM (active) | GI50 (SF-295): 9.77 µM (inactive)

From ChEMBL document CHEMBL1201862, “PubChem BioAssay data set” (2004)
